In patent US9872493B2, “Method for promoting plant growth” (SUMITOMO CHEMICAL COMPANY, LIMITED, priority 2012, dated 2018):
Where two headings read alike, the source gives them in different places.

Legend:
[1] = test system: Rice (Variety: Nipponbare); assay: Test for evaluating promotion of root growth by hydroponics of rice (Test Examples 1-3); assay type: in vivo
Experimental: Rice (Variety: Nipponbare)
(§1) A DMSO solution, which contained one of the compounds 14, 18, 21, 23, 26, 28, 29, 30, 35, 36, 37, 39 and 40 of the present invention at a concentration of 100,000 ppm, was added to Hoagland hydroponic solution (Hoagland and Arnon, California Agricultural Experiment Station 1950 Circular 347 pp. 34) of ¼-fold concentration at a volume ratio of 1/10,000. In this manner, hydroponic solutions containing one of the compounds 14, 18, 21, 23, 26, 28, 29, 30, 35, 36, 37, 39 and 40 of the present invention at 10 ppm were prepared respectively. As an untreated control plot, a hydroponic solution obtained by adding DMSO to Hoagland hydroponic solution of ¼-fold concentration at a volume ratio of 1/10,000 was used.
(§2) Rice seeds were soaked in a 1% aqueous sodium hypochlorite solution for 10 minutes, then soaked in a 70% ethanol solution for surface sterilization, and then washed with distilled water. The sterilized seeds were soaked in a hydroponic solution containing the test compound described above at 10 ppm and incubated in a dark place for 3 days at 28° C. to perform treatment for hastening germination.
(§3) Thereafter, 30 ml of hydroponic solution containing the test compound at 10 ppm was dispensed in a plastic tube (diameter of 20 mm×height of 113 mm) of which the side was covered with cardboard to block light. A float prepared using a styrene board and vinyl mesh was floated, and the rice seeds that had undergone the treatment for hastening germination were placed on the float on the surface of the hydroponic solution. The seeds were cultivated for 3 days at 26° C., an illuminance of 4,000 lux of the top surface of the tube, a humidity of 50%, and a day length of 16 hours.
The nursery plants of rice obtained after cultivating were measured in terms of the length of seminal root by using WinRHIZO system (manufactured by Regent Instruments Inc). For each test plot, an average of the measured values of the seminal root of 4 or 5 individuals were determined.
as §1, with “compounds 7, 8, 9, 10, 12, 17, 20,” for “compounds 14, 18,”, “21, 25, 27,” for “21, 23, 26,”, “30, 34,” for “30,”, “37, 38,” for “37,”, “of 10,000” for “of 100,000”, “at 1” for “at 10”
as §2, with “at 1” for “at 10”
as §3, with “1” for “10”
The nursery plants of rice obtained after cultivation were measured in terms of the length of seminal root by using WinRHIZO system (manufactured by Regent Instruments Inc). […]

Nicotiana benthamiana = assay: Test for evaluating growth promotion under low-temperature stress by hydroponics of Nicotiana benthamiana (Test Examples 4-6); assay type: in vivo; details: read-out: value of a relative leaf area (equation (1)); for relative green leaf area after low-temperature stress at 0.1 ppm: compound at 0.1 ppm; for relative green leaf area after low-temperature stress at 10 ppm: compound at 10 ppm
Experimental: A DMSO solution, which contained one of the compounds 5, 14, 22, 23, 24, 25, 26, 28, 30, 31, 32, 33, 34, 35, 38, 39 and 40 of the present invention at a concentration of 10,000 ppm, was prepared. The DMSO solution of the compound of the present invention was added at a volume ratio of 1/1,000 to the Murashige•Scoog medium of a ½-fold concentration (a medium containing 2.3 g of mixed salts (manufactured by Wako Pure Chemical Industries, Ltd.), 200 mg of Myo-inositol (manufactured by Sigma-Aldrich Co. LLC.), 2 mg of nicotinic acid (manufactured by Wako Pure Chemical Industries, Ltd.), 2 mg of pyridoxine hydrochloride (manufactured by Wako Pure Chemical Industries, Ltd.), 20 mg of thiamine hydrochloride (manufactured by Wako Pure Chemical Industries, Ltd.), 20 g of sucrose (manufactured by Wako Pure Chemical Industries, Ltd.), and 1 g of MES (manufactured by DOJINDO LABORATORIES) per 1 L of water and having pH adjusted to 5.8), thereby preparing a medium containing the compound of the present invention at a concentration of 10 ppm.
Seeds of Nicotiana benthamiana were seeded in the 5 μL of the medium and cultured overnight at 22° C. Thereafter, 45 μL of the medium containing the compound of the present invention at a concentration of 10 ppm was added thereto, and the seeds are cultivated for 7 days at 22° C., an illuminance of 4,000 lux, and a day length of 16 hours, thereby the nursery plants raised from the Nicotiana benthamiana were treated with the compound.
Moreover, instead of the above medium a test plot, which was obtained by performing the same treatment by using a medium prepared by adding DMSO to the Murashige•Scoog medium of ½-fold concentration at a volume ratio of 1/1,000, was used as a control plot not treated with the compound.
The nursery plants of the Nicotiana benthamiana treated with the compound were subjected to low-temperature treatment by being cultivated for 7 days at 1.5±1.0° C., an illuminance of 2,000 lux, and a day length of 16 hours.
The nursery plants of the Nicotiana benthamiana having undergone the low-temperature stress treatment were cultivated for 3 days at 22° C., an illuminance of 4,000 lux, and a day length of 16 hours. Thereafter, the area of green leaf was quantified by Scanalyzer HTS (manufactured by LemnaTec GmbH). Moreover, the value of the control plot not treated with the compound that had not yet been subjected to the low-temperature stress treatment was measured in the same manner. A value of a relative leaf area was calculated based on the following equation (1), and if the value of a relative leaf area was 5 or greater, the compound was evaluated to have a mitigating effect. As a result of the evaluation, it was confirmed that when the plant was treated with one of the compounds 5, 14, 22, 23, 24, 25, 26, 28, 30, 31, 32, 33, 34, 35, 38, 39 and 40 of the present invention at 10 ppm, the value of a relative leaf area was 5 or greater, compared to the area of green leaf of the control plot not treated with compound. Accordingly, it was confirmed that the treatment using the compound of the present invention brings about a growth promotion effect. Relative leaf area=100*(a green area of a plot treated with the compound of the present invention−a green area of a control plot not treated with the compound of the present invention)/(a green area of a control plot not treated with the compound of the present invention that has not yet been subjected to low-temperature stress treatment−a green area of a control plot not treated with the compound of the present invention) Equation (1): […]
A DMSO solution, which contained one of the compounds 6, 7, 8, 11, 12, 15, 19, 23, 24, 25, 28, 30, 31, 33, 34, 36, 37, 38 and 39 of the present invention at a concentration of 1,000 ppm, was prepared. […]

[2] = 7 days at 1.5±1.0° C. low-temperature stress, then 3 days at 22° C., green leaf area vs untreated control
[3] = compound at 1 ppm, 7 days at 1.5±1.0° C. low-temperature stress, then 3 days at 22° C., green leaf area vs untreated control

Compound	length of seminal root compared with the untreated control plot (in words) ([1]; 0.1 ppm)	length of seminal root compared with the untreated control plot (in words) ([1]; 1 ppm)	relative green leaf area after low-temperature stress at 0.1 ppm (Nicotiana benthamiana; [2])	relative green leaf area after low-temperature stress at 1 ppm (Nicotiana benthamiana; [3])	relative green leaf area after low-temperature stress at 10 ppm (Nicotiana benthamiana; [2])	other results
COC(=O)c1csc2cc(C(F)(F)F)ccc12 [Compound 28]	obviously longer	obviously longer	≥ 5%	≥ 5%	≥ 5%	length of seminal root compared with the untreated control plot (in words) ([1]; 10 ppm): obviously longer
COC(=O)c1csc2ccc(C(F)(F)F)cc12 [Compound 14, methyl 5-trifluoromethylbenzo[b]thiophene-3-carboxylate]					≥ 5%	length of seminal root compared with the untreated control plot (in words) ([1]; 10 ppm): obviously longer
COC(=O)c1c(C(F)(F)F)sc2c(C(=O)OC)cccc12 [Compound 18, dimethyl 2-trifluoromethylbenzo[b]thiophene-3,7-dicarboxylate]						length of seminal root compared with the untreated control plot (in words) ([1]; 10 ppm): obviously longer
COC(=O)c1csc2ccccc12 [Compound 12, methyl benzo[b]thiophene-3-carboxylate]		obviously longer		≥ 5%		
COC(=O)c1cccc2ccsc12 [Compound 8, methyl benzo[b]thiophene-7-carboxylate]		obviously longer		≥ 5%		
NC(=O)c1c(C(F)(F)F)sc2ccccc12 [Compound 17, 2-trifluoromethylbenzo[b]thiophene-3-carboxamide]		obviously longer				
NC(=O)c1csc2c(C(F)(F)F)cccc12 [Compound 37]	obviously longer	obviously longer		≥ 5%		length of seminal root compared with the untreated control plot (in words) ([1]; 10 ppm): obviously longer
O=C(Nc1ccccc1)c1c(C(F)(F)F)sc2ccccc12 [Compound 25]		obviously longer		≥ 5%	≥ 5%	
NC(=O)c1cccc2cc(C(F)(F)F)sc12 [Compound 11, 2-trifluoromethylbenzo[b]thiophene-7-carboxamide]						relative green leaf area after low-temperature stress at 1 ppm (Nicotiana benthamiana): ≥ 5%
O=C(O)c1csc2ccc(C(F)(F)F)cc12 [Compound 13, 5-trifluoromethylbenzo[b]thiophene-3-carboxylic acid]	obviously longer		≥ 5%			
NC(=O)c1cccc2sc(C(F)(F)F)cc12 [Compound 3, 2-trifluoromethylbenzo[b]thiophene-4-carboxamide]	obviously longer		≥ 5%			
COC(=O)c1csc2c(C(F)(F)F)cccc12 [Compound 35]	obviously longer	obviously longer	≥ 5%		≥ 5%	length of seminal root compared with the untreated control plot (in words) ([1]; 10 ppm): obviously longer
CNC(=O)c1c(C(F)(F)F)sc2ccccc12 [Compound 24]				≥ 5%	≥ 5%	
CCOC(=O)c1c(C(F)(F)F)sc2ccccc12 [Compound 22]			≥ 5%		≥ 5%	
O=C(NCc1ccccc1)c1csc2cc(C(F)(F)F)ccc12 [Compound 33]			≥ 5%	≥ 5%	≥ 5%	
O=C(O)c1cccc2sc(C(F)(F)F)cc12 [Compound 1, 2-trifluoromethylbenzo[b]thiophene-4-carboxylic acid]	obviously longer					
O=C(Nc1ccccc1)c1csc2cc(C(F)(F)F)ccc12 [Compound 32]			≥ 5%		≥ 5%	
COC(=O)c1ccc2sccc2c1 [Compound 5, methyl benzo[b]thiophene-5-carboxylate]					≥ 5%	
COC(=O)c1cccc2sc(C(F)(F)F)cc12 [Compound 2, methyl 2-trifluoromethylbenzo[b]thiophene-4-carboxylate]			≥ 5%			
O=C(O)c1csc2cc(C(F)(F)F)ccc12 [Compound 27]	obviously longer	obviously longer				
